Source: paper PMC9516332 (Frontiers in Oncology, 2022)

Experiments:
Assay in all cases: Kinase panel profiling at 1 µmol/L (MSA or IMAP), percentage inhibition
Format in all cases: biochemical
[1] = molecular target: panel of 255 wild-type kinases (Homo sapiens, UniProt P23443); details: p70S6K; 1 µmol/L single concentration; read-out: %-inhibition, p70S6K
[2] = molecular target: T1, panel of 255 wild-type kinases (Homo sapiens, UniProt P51813); details: BMX kinase assay; 1 µmol/L single concentration; read-out: %-inhibition BMX
T1 sequence (P51813 1-675): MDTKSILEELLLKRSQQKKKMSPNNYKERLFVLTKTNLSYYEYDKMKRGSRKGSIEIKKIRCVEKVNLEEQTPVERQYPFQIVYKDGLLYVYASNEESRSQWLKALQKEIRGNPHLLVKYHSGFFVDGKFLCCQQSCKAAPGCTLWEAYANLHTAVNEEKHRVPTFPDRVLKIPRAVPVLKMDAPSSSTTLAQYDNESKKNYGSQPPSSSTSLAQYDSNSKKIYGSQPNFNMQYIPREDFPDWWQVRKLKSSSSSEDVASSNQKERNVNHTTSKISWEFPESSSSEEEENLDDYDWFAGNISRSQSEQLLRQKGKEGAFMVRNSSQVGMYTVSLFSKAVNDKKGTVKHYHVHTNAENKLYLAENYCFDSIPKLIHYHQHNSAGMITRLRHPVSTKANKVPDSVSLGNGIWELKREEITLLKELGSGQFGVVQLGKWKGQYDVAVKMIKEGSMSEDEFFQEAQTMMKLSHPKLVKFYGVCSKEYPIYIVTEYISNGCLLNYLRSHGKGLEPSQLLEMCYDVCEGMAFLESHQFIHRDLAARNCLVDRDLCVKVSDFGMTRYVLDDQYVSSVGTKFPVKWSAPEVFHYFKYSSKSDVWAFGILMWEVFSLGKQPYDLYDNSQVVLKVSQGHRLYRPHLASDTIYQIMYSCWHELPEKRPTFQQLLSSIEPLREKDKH

[3] = molecular target: panel of 255 wild-type kinases (Homo sapiens, UniProt Q13627); details: kinase DYRK1A; 1 µmol/L single concentration; read-out: %-inhibition at 1 µmol/L, DYRK1A
[4] = molecular target: T2, panel of 255 wild-type kinases (Homo sapiens, UniProt Q14164); details: kinase IKKε; 1 µmol/L single concentration; read-out: %-inhibition at 1 µmol/L, IKKε
T2 sequence (Q14164 1-716): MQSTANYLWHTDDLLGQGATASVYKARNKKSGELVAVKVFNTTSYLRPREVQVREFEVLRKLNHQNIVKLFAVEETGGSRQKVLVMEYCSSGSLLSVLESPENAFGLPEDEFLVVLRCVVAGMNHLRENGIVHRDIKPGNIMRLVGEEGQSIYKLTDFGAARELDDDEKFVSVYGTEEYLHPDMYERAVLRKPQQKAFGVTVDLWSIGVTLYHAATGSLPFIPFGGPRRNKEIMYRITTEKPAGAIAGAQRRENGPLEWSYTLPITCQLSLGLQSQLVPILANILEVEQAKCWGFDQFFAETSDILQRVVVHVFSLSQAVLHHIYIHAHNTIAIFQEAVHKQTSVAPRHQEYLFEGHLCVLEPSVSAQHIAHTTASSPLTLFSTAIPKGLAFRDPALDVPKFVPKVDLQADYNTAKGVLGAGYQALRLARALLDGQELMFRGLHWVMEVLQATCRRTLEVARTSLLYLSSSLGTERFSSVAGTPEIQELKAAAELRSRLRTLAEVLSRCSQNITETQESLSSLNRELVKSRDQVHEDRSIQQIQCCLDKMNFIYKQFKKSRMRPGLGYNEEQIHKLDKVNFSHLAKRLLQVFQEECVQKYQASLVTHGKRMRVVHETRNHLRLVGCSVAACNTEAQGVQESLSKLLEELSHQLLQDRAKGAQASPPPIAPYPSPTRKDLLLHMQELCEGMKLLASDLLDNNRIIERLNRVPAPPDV

[5] = molecular target: panel of 255 wild-type kinases (Homo sapiens, UniProt Q15349); details: kinase RSK3; 1 µmol/L single concentration; read-out: %-inhibition at 1 µmol/L, RSK3
[6] = molecular target: panel of 255 wild-type kinases (Homo sapiens, UniProt Q15375); details: kinase EPHA7; 1 µmol/L single concentration; read-out: %-inhibition at 1 µmol/L, EPHA7
[7] = molecular target: panel of 255 wild-type kinases (Homo sapiens, UniProt Q16644); details: MAPKAPK3; 1 µmol/L single concentration; read-out: %-inhibition, MAPKAPK3
[8] = molecular target: T3, panel of 255 wild-type kinases (Homo sapiens, UniProt Q8TF76); details: kinase Haspin; 1 µmol/L single concentration; read-out: %-inhibition at 1 µmol/L, Haspin
T3 sequence (Q8TF76 1-798): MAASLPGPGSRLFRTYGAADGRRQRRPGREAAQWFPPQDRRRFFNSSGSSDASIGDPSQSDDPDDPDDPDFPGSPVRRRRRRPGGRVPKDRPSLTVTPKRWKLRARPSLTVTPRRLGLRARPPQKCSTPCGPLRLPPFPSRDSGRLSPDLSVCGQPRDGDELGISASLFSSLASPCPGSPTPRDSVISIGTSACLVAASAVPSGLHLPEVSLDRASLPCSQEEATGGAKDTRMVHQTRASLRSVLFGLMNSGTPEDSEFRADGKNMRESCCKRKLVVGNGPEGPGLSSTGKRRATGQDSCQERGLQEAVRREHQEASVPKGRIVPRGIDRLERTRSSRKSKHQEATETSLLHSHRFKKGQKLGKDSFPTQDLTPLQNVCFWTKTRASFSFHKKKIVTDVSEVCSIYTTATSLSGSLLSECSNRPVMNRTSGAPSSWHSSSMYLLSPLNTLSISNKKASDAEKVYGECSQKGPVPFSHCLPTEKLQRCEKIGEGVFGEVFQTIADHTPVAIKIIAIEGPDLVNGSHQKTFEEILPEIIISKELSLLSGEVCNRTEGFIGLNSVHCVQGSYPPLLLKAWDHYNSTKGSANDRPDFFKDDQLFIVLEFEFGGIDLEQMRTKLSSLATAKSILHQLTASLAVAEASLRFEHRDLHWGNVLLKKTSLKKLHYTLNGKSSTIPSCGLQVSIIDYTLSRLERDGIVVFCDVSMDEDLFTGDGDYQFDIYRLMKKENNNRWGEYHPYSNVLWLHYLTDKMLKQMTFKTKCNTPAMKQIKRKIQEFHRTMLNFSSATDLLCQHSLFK

[9] = molecular target: panel of 255 wild-type kinases (Homo sapiens, UniProt Q9UKE5); details: kinase TNIK; 1 µmol/L single concentration; read-out: %-inhibition at 1 µmol/L, TNIK

Compound	inhibition at 1 µM [1] [%]	inhibition at 1 µM [2] [%]	inhibition at 1 µM [3] [%]	inhibition at 1 µM [4] [%]	inhibition at 1 µM [5] [%]	inhibition at 1 µM [6] [%]	inhibition at 1 µM [7] [%]	inhibition at 1 µM [8] [%]	inhibition at 1 µM [9] [%]
CO[C@]1(C(=O)N[C@@H](C)c2ccc(-n3cc(F)cn3)nc2)CC[C@H](c2nc(C)cc(Nc3cc(C)[nH]n3)n2)CC1 [pralsetinib]	29	82	-3	-5	64	68	-22	0.149	6.58
COc1cc2ncnc(Nc3ccc(F)c(Cl)c3)c2cc1NC(=O)/C=C/CN1CCCCC1 [dacomitinib]	33	12	9	-2.11	27	38	-25	13	27
CCn1c(=O)c(-c2cc(NC(=O)Nc3ccccc3)c(F)cc2Br)cc2cnc(NC)cc21 [ripretinib]	64	60	1.4	-5	12	54	-16	1.87	28
Cc1nc(NC(=O)N2CCC[C@H]2C(N)=O)sc1-c1ccnc(C(C)(C)C(F)(F)F)c1 [alpelisib]	9	0.476	6	-4.31	-1.47	-1.3	-13	-4	4.6
C=CC(=O)N1CCC([C@@H]2CCNc3c(C(N)=O)c(-c4ccc(Oc5ccccc5)cc4)nn32)CC1 [zanubrutinib]	-3.21	–	-4.37	6	-7	0.758	-12	-1.75	6.44
O=C(Nc1cnn2ccc(N3CCC[C@@H]3c3cc(F)ccc3F)nc12)N1CC[C@H](O)C1 [larotrectinib]	-1.58	21	-4.7	7	-10	-0.152	-16	-4.46	1.8
Cc1cc(Nc2ncnc3ccc(NC4=NC(C)(C)CO4)cc23)ccc1Oc1ccn2ncnc2c1 [tucatinib]	15	6.62	-3.25	-2.62	2.84	1.07	-3	0.893	4
FC(F)(F)c1ccc(CNc2ccc(Cc3c[nH]c4ncc(Cl)cc34)cn2)cn1 [pexidartinib]	31	-0.565	8	-1.81	42	6.38	-15	6.52	20
Cn1cnc2c(F)c(Nc3ccc(Br)cc3F)c(C(=O)NOCCO)cc21 [binimetinib]	4.72	4	-8	-3	-5	0.598	-11	-15	0.137
CN1CCN(c2ccc(C(=O)Nc3n[nH]c4ccc(Cc5cc(F)cc(F)c5)cc34)c(NC3CCOCC3)c2)CC1 [entrectinib]	25	99	-3.18	7	–	44	-10	-2.24	20
COC(=O)N[C@@H](C)CNc1nccc(-c2cn(C(C)C)nc2-c2cc(Cl)cc(NS(C)(=O)=O)c2F)n1 [encorafenib]	14	8	6	-3.36	-3.36	5	-15	-5	14
C[C@H]1Oc2cc(cnc2N)-c2c(nn(C)c2C#N)CN(C)C(=O)c2ccc(F)cc21 [lorlatinib]	8	4	-4.39	-3.78	2.53	56	-10	0.865	7
CCN1CCN(c2ccc(Nc3cc(N(C)C(=O)Nc4c(Cl)c(OC)cc(OC)c4Cl)ncn3)cc2)CC1 [infigratinib]	5.33	0.836	-4	-6	-0.616	-4	-17	-1.4	–
COc1ccc(CN2C3CC2CN(c2ccc(-c4cc(OCC(C)(C)O)cn5ncc(C#N)c45)cn2)C3)cn1 [selpercatinib]	42	12	6	20	56	96	-12	-4.63	6
